One compound from ChEMBL document CHEMBL3108750, “Solution structure of a sponge-derived cystine knot peptide and its notable stability” (J Nat Prod, 2014) can be followed below.

SMILES strings stand for the structures. Positions of bridges follow the written chain, without caps; N, C: chain ends. Residues, ends and D or L forms follow the SMILES beside them.

Series [1] in a line: Cytotoxicity against human MCF10A cells assessed as cell viability up to 50 uM after 48 hrs by MTT assay. In kind it is cell-based. Particulars: mcf-10a. Background: Formazan colour is commonly taken as a measure of viable cells.
Series [2] can be described thus: Cytotoxicity against human HK2 cells assessed as cell viability up to 50 uM after 48 hrs by MTT assay. Particulars: hk-2, 48 h. In kind it is cell-based.

For the compound `CC[C@H](C)[C@H](NC(=O)[C@@H](NC(=O)[C@H](Cc1ccc(O)cc1)NC(=O)[C@@H]1CSSC[C@@H]2NC(=O)[C@@H]3CCCN3C(=O)[C@H](CC(N)=O)NC(=O)[C@H](Cc3ccccc3)NC(=O)[C@H](CCC(=O)O)NC(=O)[C@H](C(C)C)NC(=O)[C@H](CC(=O)O)NC(=O)[C@@H]3CSSC[C@H](NC(=O)[C@H]([C@@H](C)O)NC(=O)[C@H](CC(C)C)NC(=O)[C@@H]4CCCN4C(=O)[C@@H]4CCCN4C(=O)[C@H](CSSC[C@H](N)C(=O)N4CCC[C@H]4C(=O)NCC(=O)N[C@@H](CCC(=O)O)C(=O)NCC(=O)N[C@@H](CCC(=O)O)C(=O)N[C@@H](CCC(N)=O)C(=O)N3)NC2=O)C(=O)N[C@@H]([C@@H](C)CC)C(=O)N2CCC[C@H]2C(=O)NCC(=O)N[C@@H](CC(=O)O)C(=O)N2CCC[C@H]2C(=O)N[C@@H](Cc2ccc(O)cc2)C(=O)NCC(=O)N[C@@H]([C@@H](C)CC)C(=O)N1)[C@@H](C)CC)C(=O)O` (H-CPGEGEQCDVEFNPCCPPLTCIPGDPYGICYII-OH; disulfide 1-16, 8-21, 15-30), the Activity result in series [1] and in series [2] was “Non-toxic” in each case.
